Experimental data reported in PubChem BioAssay AID248 (DTP/NCI, 2004).
Several values for one entry are separate records, joined by “and”; a condition that tells them apart may be missing. Equal values may be shown once. Inconclusive results and toxic doses are left out. No stated cut-off is given here; in the data, active means T/C of 150% or more; inactive means T/C below 125%.

Test system: L1210 leukemia ip in BDF1 mice, survival T/C
Assay: NCI In Vivo Anticancer Drug Screen. Data for tumor model L1210 Leukemia (intraperitoneal) in B6D2F1 (BDF1) mice
Conditions: endpoint: mean survival time, higher = longer survival
In short: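 Ratio derived from survival: compound-dosed mice over vehicle-dosed mice, all bearing a transplantable tumor.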

[1] = dose: 100.0 mg/kg/injection, schedule: Q04DX003 (ip), vehicle: saline with Tween-80
[2] = dose: 200.0 mg/kg/injection, schedule: Q04DX003 (ip), vehicle: saline with Tween-80
[3] = dose: 400.0 mg/kg/injection, schedule: Q04DX003 (ip), vehicle: saline with Tween-80
[4] = dose: 100.0 mg/kg/injection, schedule: Q01DX009 (ip), vehicle: Klucel (hydroxypropylcellulose) (HPC)
[5] = dose: 100.0 mg/kg/injection, schedule: Q04DX003 (ip), vehicle: Klucel (hydroxypropylcellulose) (HPC)
[6] = dose: 200.0 mg/kg/injection, schedule: Q01DX009 (ip), vehicle: Klucel (hydroxypropylcellulose) (HPC)
[7] = dose: 200.0 mg/kg/injection, schedule: Q04DX003 (ip), vehicle: Klucel (hydroxypropylcellulose) (HPC)
[8] = dose: 400.0 mg/kg/injection, schedule: Q01DX009 (ip), vehicle: Klucel (hydroxypropylcellulose) (HPC)
[9] = dose: 400.0 mg/kg/injection, schedule: Q04DX003 (ip), vehicle: Klucel (hydroxypropylcellulose) (HPC)
[10] = dose: 75.0 mg/kg/injection, schedule: Q01DX001 (ip), vehicle: saline
[11] = dose: 150.0 mg/kg/injection, schedule: Q01DX001 (ip), vehicle: saline
[12] = dose: 9.38 mg/kg/injection, schedule: Q01DX001 (ip), vehicle: saline
[13] = dose: 100.0 mg/kg/injection, schedule: Q04DX002 (ip), vehicle: Klucel (hydroxypropylcellulose) (HPC)
[14] = dose: 200.0 mg/kg/injection, schedule: Q04DX002 (ip), vehicle: Klucel (hydroxypropylcellulose) (HPC)
[15] = dose: 400.0 mg/kg/injection, schedule: Q04DX002 (ip), vehicle: Klucel (hydroxypropylcellulose) (HPC)
[16] = dose: 75.0 mg/kg/injection, schedule: Q01DX001 (ip), vehicle: carboxymethylcellulose (CMC)
[17] = dose: 150.0 mg/kg/injection, schedule: Q01DX001 (ip), vehicle: carboxymethylcellulose (CMC)

Measured: T/C

O=C(Nc1ccc(C2=NCCN2)cc1)c1c(F)c(F)c(C(=O)Nc2ccc(C3=NCCN3)cc2)c(F)c1F
inactive: dose: 1.87 mg/kg/injection, schedule: Q01DX015 (ip), vehicle: methylcellulose (MC) 103 % of control | dose: 3.75 mg/kg/injection, schedule: Q01DX015 (ip), vehicle: methylcellulose (MC) 101 % of control | dose: 7.5 mg/kg/injection, schedule: Q01DX015 (ip), vehicle: methylcellulose (MC) 121 % of control | dose: 37.0 mg/kg/injection, schedule: Q01DX015 (ip), vehicle: methylcellulose (MC) 95 % of control

C/C=C/CCC(C)=O
inactive: [1] 99 % of control | [2] 100 % of control | [3] 108 % of control

Clc1nnc(NC2CCCCC2)c(Cl)c1Cl
inactive: [4] 102 % of control | [5] 91 % of control | [6] 102 % of control | [7] 91 % of control | [8] 110 % of control | [9] 92 % of control

CCC(=O)NC(CC(C)C)C(=O)NC(CC(C)C)C(=O)NC(C=O)CCCN=C(N)N (stereo unspecified) (tested in a mixture with another compound)
inactive: dose: 25.0 mg/kg/injection, schedule: Q04DX002 (ip), vehicle: saline 98 % of control | dose: 50.0 mg/kg/injection, schedule: Q04DX002 (ip), vehicle: saline 91 % of control | dose: 100.0 mg/kg/injection, schedule: Q04DX002 (ip), vehicle: saline 91 % of control

NC(=S)c1ccc(S(=O)(=O)Nc2cccc(Br)c2)cc1
inactive: [1] 103 % of control | [2] 103 % of control | [3] 97 % of control

CC(C)(C)CC(C)(C)c1ccc(OCCOc2ccc(C(=O)O)cc2)cc1
inactive: [4] 88 % of control | [6] 92 % of control | [8] 92 % of control

CCCCCCCCCCCCCCCCSCCCCCCCCCCCCCCCC
inactive: dose: 100.0 mg/kg/injection, schedule: Q01DX009 (ip), vehicle: saline with Tween-80 104 % of control | dose: 200.0 mg/kg/injection, schedule: Q01DX009 (ip), vehicle: saline with Tween-80 98 % of control

O=[N+]([O-])c1ccc(S(=O)(=O)C2CCCCC2Cl)cc1 (stereo unspecified)
inactive: [4] 88 % of control | [6] 91 % of control | [8] 90 % of control

O=[N+]([O-])c1ccc(OCCN2CCCC2)cc1
inactive: [10] 93 % of control | [11] 98 % of control

COC(=O)c1ccc(OC(=O)Nc2ccc(C)cc2)cc1
inactive: [4] 101 % of control | [6] 100 % of control | [8] 101 % of control

OCC1C2CCC(C2)C1c1ccccc1 (stereo unspecified)
inactive: [12] 103 % of control

OCC(Cl)(Cl)Cl
inactive: dose: 100.0 mg/kg/injection, schedule: Q04DX003 (ip), vehicle: saline 104 % of control | dose: 200.0 mg/kg/injection, schedule: Q04DX003 (ip), vehicle: saline 96 % of control | dose: 400.0 mg/kg/injection, schedule: Q04DX003 (ip), vehicle: saline 107 % of control

CN(N)c1cc(=O)[nH]c(N)n1
inactive: [13] 101 % of control | [14] 97 % of control | [15] 92 % of control

O=S1(=O)C=CC1
inactive: dose: 50.0 mg/kg/injection, schedule: Q01DX001 (ip), vehicle: saline 115 % of control

O=C1C=CC(=O)N1CCCCN1C(=O)C=CC1=O
inactive: dose: 11.1 mg/kg/injection, schedule: Q01DX Z (ip), vehicle: methylcellulose (MC) 96 % of control | dose: 16.6 mg/kg/injection, schedule: Q01DX Z (ip), vehicle: methylcellulose (MC) 106 % of control | dose: 25.0 mg/kg/injection, schedule: Q01DX Z (ip), vehicle: methylcellulose (MC) 93 % of control

NC(=O)N1C(=O)C=CC1=O
inactive: dose: 50.0 mg/kg/injection, schedule: Q04DX002 (ip), vehicle: Klucel (hydroxypropylcellulose) (HPC) 96 % of control | [4] 105 % of control | [13] 100 % of control | [6] 91 % of control

CC(C)(C)c1cc(/C=N/NC(=O)CCCCCCCCC(=O)N/N=C/c2cc(C(C)(C)C)c(O)c(C(C)(C)C)c2)cc(C(C)(C)C)c1O
inactive: dose: 100.0 mg/kg/injection, schedule: Q01DX001 (ip), vehicle: Klucel (hydroxypropylcellulose) (HPC) 104 % of control | [4] 94 % of control | [13] 109 % of control | [5] 111 % of control | dose: 200.0 mg/kg/injection, schedule: Q01DX001 (ip), vehicle: Klucel (hydroxypropylcellulose) (HPC) 103 % of control | [6] 94 % of control and 90 % of control | [14] 100 % of control | [7] 110 % of control | dose: 400.0 mg/kg/injection, schedule: Q01DX001 (ip), vehicle: Klucel (hydroxypropylcellulose) (HPC) 93 % of control | [15] 102 % of control | [9] 108 % of control

CCOC(=O)C(CC1CCCCC1)(NC(C)=O)C(=O)OCC
inactive: dose: 75.0 mg/kg/injection, schedule: Q04DX003 (ip), vehicle: saline 96 % of control | dose: 150.0 mg/kg/injection, schedule: Q04DX003 (ip), vehicle: saline 104 % of control | dose: 300.0 mg/kg/injection, schedule: Q04DX003 (ip), vehicle: saline 100 % of control

C=CCC1(C(=C)C)C(=O)NC(=S)NC1=O
inactive: [16] 95 % of control | [10] 91 % of control | [17] 105 % of control | [11] 102 % of control

O=C(Nc1ccc(C2=NCCN2)cc1)c1ccc(Br)c(C(=O)Nc2ccc(C3=NCCN3)cc2)c1
inactive: dose: 15.0 mg/kg/injection, schedule: Q01DX Z (ip), vehicle: saline 101 % of control | dose: 20.0 mg/kg/injection, schedule: Q01DX Z (ip), vehicle: water 102 % of control | dose: 30.0 mg/kg/injection, schedule: Q01DX Z (ip), vehicle: saline 117 % of control | dose: 30.0 mg/kg/injection, schedule: Q01DX Z (ip), vehicle: water 120 % of control

O=C(CCl)c1cnc2ccccc2n1
inactive: dose: 5.0 mg/kg/injection, schedule: Q01DX009 (ip), vehicle: saline 102 % of control | dose: 5.0 mg/kg/injection, schedule: Q04DX003 (ip), vehicle: saline 103 % of control | dose: 10.0 mg/kg/injection, schedule: Q01DX009 (ip), vehicle: saline 98 % of control | dose: 10.0 mg/kg/injection, schedule: Q04DX003 (ip), vehicle: saline 100 % of control | dose: 20.0 mg/kg/injection, schedule: Q01DX009 (ip), vehicle: saline 93 % of control | dose: 20.0 mg/kg/injection, schedule: Q04DX003 (ip), vehicle: saline 100 % of control

O=C(O)CNC(=O)NCO
inactive: dose: 100.0 mg/kg/injection, schedule: Q01DX001 (ip), vehicle: acetone 100 % of control | dose: 200.0 mg/kg/injection, schedule: Q01DX001 (ip), vehicle: acetone 100 % of control | dose: 400.0 mg/kg/injection, schedule: Q01DX001 (ip), vehicle: acetone 103 % of control

CCCC(CCC)NC(=O)c1ccccc1
inactive: dose: 25.0 mg/kg/injection, schedule: Q04DX002 (ip), vehicle: saline with Tween-80 104 % of control | dose: 50.0 mg/kg/injection, schedule: Q04DX002 (ip), vehicle: saline with Tween-80 95 % of control | dose: 100.0 mg/kg/injection, schedule: Q04DX002 (ip), vehicle: saline with Tween-80 95 % of control

NP(O)(O)=S
inactive: [12] 104 % of control | dose: 18.75 mg/kg/injection, schedule: Q01DX001 (ip), vehicle: saline 98 % of control

CCOC(=O)c1c(-c2ccc(OC)c(OC)c2OCc2ccccc2)c(C)c(C)[nH]c1=O
inactive: [16] 102 % of control | [17] 102 % of control | dose: 300.0 mg/kg/injection, schedule: Q01DX001 (ip), vehicle: carboxymethylcellulose (CMC) 102 % of control
